{"source": "patent US20190209548A1", "about": "“LINKED DIARYL COMPOUNDS WITH ANTICANCER PROPERTIES AND METHODS OF USING THE SAME” (University of Maryland, College Park, priority 2014, published 2019)", "key": {"[1]": {"test_system": "8 bp AT", "experiment": "CD titration with AT-rich duplex DNA", "format": "binding", "conditions": "ligand 40 μM, 8 bp AT 0-50 μM", "description": "CD experiments for binding of ligands with duplex DNA (AT-rich). CD titration experiments, monitoring in the wavelength region corresponding to the bound ligand, were performed with different concentrations of 8 bp AT (0-50 μM) added to a fixed concentration of either DMZ or Triazene-1 (40 μM)."}, "[2]": {"test_system": "24mer c-myc", "experiment": "ITC titration with c-myc G-quadruplex", "format": "binding", "description": "(§1) Isothermal titration calorimetry. ITC experiments were performed using a VP-ITC calorimeter (GE-Healthcare). A typical ITC experiment involved as many as addition of 28 (10 μL) injections of as high as 1 mM ligand solutions into ˜1.5 mL of a dilute DNA solution (10 μM). Corrected titration curves were achieved by subtracting the blank titration data from the ITC-data for the ligand-DNA titrations. Corrected ITC titrations were fit with a nonlinear regression algorithm again using the CHASM ITC data analysis program developed in our laboratory.\n(§2) DNA stock solutions were prepared by reconstituting the lyophilized oligonucleotide into 20 mM Tris buffer with a salt concentration of 100 mM KCl and a pH of 7.2. Approximately 2 mL of the oligonucleotide was dialyzed (1000 Mw cutoff membrane) against three changes of buffer solution (1 L, 24 h each) at 4° C. The concentrations of stock DNA solutions were verified using UV-Vis. G-Quadruplex DNAs were annealed by quickly heating to sample to 100° C., holding at 100° C. for ten minutes then slowly cooling to 5° C. over three hours period. Molar extinction coefficient of the DNAs were determined using a nearest-neighbor method for single stranded DNA. The extinction coefficients at 260 nm for the WT 27-mer bcl-2, WT 24-mer c-myc, WT 22-mer human telomere hTel sequences are 267,200 M^−1cm^−1, 248,100 M^−1cm^−1, and 228,500 M^−1cm^−1 respectively. The extinction coefficient at 260 nm for the 7 base pair hairpin with A2T2 (7 bp HP⋅AT) and the 7 base pair hairpin without A2T2 (7 bp HP) are 165,200 M^−1cm^−1 and 159,200 M^−1cm^−1 respectively. Cell culture grade water purchased from Corning was used for all experiments."}, "[3]": {"test_system": "G-quadruplex DNAs (c-kit1, VEGF, bcl-2 2345 and TBA)", "experiment": "UV-visible titration with G-quadruplex DNA", "format": "binding", "conditions": "ligand 10 μM, DNA 0-150 μM, 250 mM KCl, Tris-HCl pH 7.5", "description": "UV titration studies of DNA with the triazene ligands, DMZ and Triazene-1. The molar extinction coefficients at 260 nm for 22-mer c-kit1, 18-mer VEGF, 23-mer bcl-2 2345, 15-mer TBA and 20-mer 8 bp AT are as follows 226,700 M^−1 cm^−1, 169,800 M^−1 cm^−1, 227,300 M^−1 cm^−1, 143,300 M^−1 cm^1 and 205,500 M^−1 cm^−1, respectively. The concentration of ligands used in this study was 10 μM and the DNA concentrations were 0, 0.25, 1.5, 3, 5, 6, 7, 8, 9, 10, 20, 30, 40, 50, 100, and 15 μM. The buffer contained 250 mM KCl, 50 mM Tris-HCl (at pH 7.5). The following quadruplex DNA were tested: c-kit1, VEGF, bcl-2 2345, and TBA. Duplex DNA (8 bp AT) was also tested. The sample was first heated up to 95° C. for 5 min without the ligand and then cooled down to room temperature in 15 min. The ligand was then added and the mixture was incubated at 4° C. for ˜12 h before recording the data. In case of Triazene-1 and Triazene-2, the sample mixture contained 1% DMSO."}, "[4]": {"test_system": "7bp HP•AT", "experiment": "ITC titration with 7 bp hairpin containing A2T2", "format": "binding", "description": "as §1, §2"}, "[5]": {"test_system": "MCR5A", "experiment": "WST-1 IC50 determination, normal fibroblast", "format": "cell-based, human", "conditions": "normal fibroblast cell, 72 hours", "description": "Cell lines and culturing. The following human cell lines were purchased from ATCC (ATCC, Manassas, Va.): prostate cancer cells (PC-3), triple negative breast cancer cells (MDA-MB-231), ovarian cancer cells (OVCAR-3), normal bone marrow (NBM) and normal fibroblast cells (MCR5A). MDA-MB-231 cells were grown at 37° C. with 5% CO2 atmosphere with DMEM (Life technologies, Carlsbad, Calif.) supplemented with heat-inactivated 10% (V/V) fetal bovine serum. OVCAR-3 and PC-3 cells were grown at 37° C. with 5% CO2 atmosphere with RPMI (Life technologies, Carlsbad, Calif.) supplemented with heat-inactivated 10% (V/V) fetal bovine serum. Cell lines were grown and maintained according to ATCC recommendations.\nIC50 determination. Cell lines were seeded into 96-well plates the afternoon prior to treatment. Cell seeding number was determined by growing cells in log phase growth during drug treatment. Approximately 18 hours later, compounds were semi-serially diluted in dimethyl sulfoxide (DMSO) and then growth medium, and added to cells. Plates were incubated for 72 hours prior to addition of WST-1 (Promega, Madison Wis.). Plates were read after 4 additional hours of incubation at 37° C. using a Bio-Tek Synergy HT plate reader (Bio-Tek, Winooski, Vt.). Data was analyzed, graphed and IC50s generated using GraphPad Prism Software (Graphpad, La Jolla, Calif.)."}, "[6]": {"test_system": "telomerase activity in MDA-MB-231", "experiment": "Telomerase activity assay (TRAPeze XL) in treated cells", "format": "cell-based, human", "description": "Telomerase Activity Assay. MDA-MB-231 cells were routinely cultured in DMEM with 10% FBS and 1% L-glutamine. The evening prior to treatment, actively growing MDA-MB-231 cells were sub-cultured and seeded into T-25 flasks at 2×10^5 cells/flask. […] At 48 and 72 hours after treatment, cells were harvested, washed with PBS, and pelleted. Cell pellets were resuspended in 200 μl CHAPS lysis buffer with 200 units/mL RNase inhibitor, mixed by pipetting, and incubated on ice for 30 minutes. Lysates were then centrifuged at 12,000×g for 20 minutes at 4° C., and supernatants were collected, snap frozen, and stored at −80° C. until analysis. Telomerase activity was assayed using a fluorescence-based TRAPeze XL telomerase detection kit (Intergen, Purchase, N.Y.). According to manufacturer, lysates (1000 cell-equivalents) were mixed with TRAPeze XL reaction mix containing Amplifuor primers and incubated at 30° C. for 30 min to allow the elongation of “TS” primer by telomerase. Amplified telomerase products were quantitated with a fluorescence plate reader. Telomerase activity (in TPG units) was calculated by comparing the ratio of telomerase products to an internal standard for each lysate, as described by the manufacturer. Each unit of TPG (Total Product Generated) corresponds to the number of TS primers extended with at least 3 telomeric repeats by telomerase in the extract in a 30 minute incubation at 30° C."}, "[7]": {"conditions": "ITC, 20 mM Tris, 100 mM KCl, pH 7.2"}}}
{"smiles": "N=C(N)c1ccc(NN=Nc2ccccc2)cc1", "note": "[DMZ1]", "values": [{"measurement": "induced CD of ligand", "setting": "[1]", "value": "No induced CD"}, {"measurement": "K1", "setting": "[2]; [7]", "value": 36000, "unit": "M⁻¹"}, {"measurement": "shift of absorption spectrum upon DNA titration", "setting": "[3]", "value": "red shift"}, {"measurement": "K1", "setting": "[4]; 20 mM Tris, 100 mM KCl, pH 7.2", "value": 29000, "unit": "M⁻¹"}, {"measurement": "reduction in binding affinity relative to DMZ", "setting": "[4]; compare Tables 2 and 3", "value": "~30", "unit": "times"}]}
{"smiles": "N=C(N)c1ccc(N=NNc2cccc(C#Cc3ccc(F)cc3)c2)cc1", "note": "[DMZ9]", "values": [{"measurement": "IC50", "setting": "[5]; read-out: IC50 ± SD, MCR5A", "value": "8.3 ± 4", "unit": "µM"}, {"measurement": "inhibition of telomerase activity", "setting": "[6]; 11 μM, 48 h or 72 h", "value": "up to 50%"}]}
{"smiles": "N=C(N)c1ccc(/N=N/Nc2ccccc2C#Cc2ccc(F)cc2)cc1", "note": "[DMZ13]", "values": [{"measurement": "IC50 ± SD, MCR5A", "setting": "[5]", "value": "NE (NE means not effective. Cell viability was the same or greater than 75% of the DMSO control at 20 μM compound concentration.)"}, {"measurement": "inhibition of telomerase activity", "setting": "[6]; 12.4 μM, 48 h", "value": "about 20%"}, {"measurement": "inhibition of telomerase activity", "setting": "[6]; 12.4 μM, 72 h", "value": "about 30%"}]}
{"smiles": "N=C(N)c1ccc(/N=N/Nc2ccc(C(=N)N)cc2)cc1", "note": "[DMZ, Diminazene aceturate, reference compound]", "values": [{"measurement": "induced CD of ligand", "setting": "[1]", "value": "large positive induced CD"}, {"measurement": "K1", "setting": "[2]; [7]", "value": "7.6e+08", "unit": "M⁻¹"}, {"measurement": "K2", "setting": "[2]; [7]", "value": "1.9e+07", "unit": "M⁻¹"}, {"measurement": "K3", "setting": "[2]; [7]", "value": 280000, "unit": "M⁻¹"}, {"measurement": "Kd", "setting": "[2]; from ITC data, as low as, read-out: dissociation constant", "value": "~0.001", "unit": "µM"}, {"measurement": "shift of absorption spectrum upon DNA titration", "setting": "[3]", "value": "remarkable bathochromic shift (red shift) and a hypochromic effect"}, {"measurement": "K2", "setting": "[4]; 20 mM Tris, 100 mM KCl, pH 7.2", "value": 45000, "unit": "M⁻¹"}]}
